What was measured:
Experiment in all cases: relative viability (nuclei count vs DMSO), 5 days (fraction); higher = more cells survive
Ispinesib + Olaparib = compound: Cc1ccc(C(=O)N(CCCN)[C@@H](c2nc3cc(Cl)ccc3c(=O)n2Cc2ccccc2)C(C)C)cc1 [Ispinesib] + O=C(c1cc(Cc2n[nH]c(=O)c3ccccc23)ccc1F)N1CCN(C(=O)C2CC2)CC1 [Olaparib] (partner 8 µM)
Method in brief: (§1)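 Lung cancer cell lines were seeded in 1536-well plates and dosed by pin tool the next day, with either a single drug or a fixed anchor-drug dose combined with five library-drug doses (not always all listed) spaced in √10 steps. Five days later, one step fixed the cells and stained their nuclei (final 0.05% Triton X-100, 1% formaldehyde, 1 ug/ml Hoechst), and nuclei were counted on 4× images. Relative viability is the nuclei count in treated wells divided by the count in vehicle wells, and each value is the median of duplicate plates.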

Linsitinib + Olaparib = compound: C[C@]1(O)C[C@@H](c2nc(-c3ccc4ccc(-c5ccccc5)nc4c3)c3c(N)nccn32)C1 [Linsitinib] + O=C(c1cc(Cc2n[nH]c(=O)c3ccccc23)ccc1F)N1CCN(C(=O)C2CC2)CC1 [Olaparib] (partner 8 µM)
Method in brief: as §1

Linsitinib + OSI-027 = compound: C[C@]1(O)C[C@@H](c2nc(-c3ccc4ccc(-c5ccccc5)nc4c3)c3c(N)nccn32)C1 [Linsitinib] + COc1cccc2cc(-c3nc([C@H]4CC[C@H](C(=O)O)CC4)n4ncnc(N)c34)[nH]c12 [OSI-027] (partner 0.5 µM)
Method in brief: as §1

Ispinesib + Foretinib = compound: Cc1ccc(C(=O)N(CCCN)[C@@H](c2nc3cc(Cl)ccc3c(=O)n2Cc2ccccc2)C(C)C)cc1 [Ispinesib] + COc1cc2c(Oc3ccc(NC(=O)C4(C(=O)Nc5ccc(F)cc5)CC4)cc3F)ccnc2cc1OCCCN1CCOCC1 [Foretinib] (partner 0.25 µM)
Method in brief: as §1

## NCI-H1792
Ispinesib + Olaparib; first compound 0.001 µM
  relative viability: 0.385
Ispinesib + Olaparib; first compound 0.003162 µM
  relative viability: 0.394
Ispinesib + Olaparib; first compound 0.01 µM
  relative viability: 0.252
Ispinesib + Olaparib; first compound 0.03162 µM
  relative viability: 0.53
Ispinesib + Olaparib; first compound 0.1 µM
  relative viability: 0.152
Linsitinib + Olaparib; first compound 0.01 µM
  relative viability: 0.341
Linsitinib + Olaparib; first compound 0.03162 µM
  relative viability: 0.348
Linsitinib + Olaparib; first compound 0.1 µM
  relative viability: 0.373
Linsitinib + Olaparib; first compound 0.3162 µM
  relative viability: 0.298
Linsitinib + Olaparib; first compound 1 µM
  relative viability: 0.172
Linsitinib + OSI-027; first compound 0.03162 µM
  relative viability: 0.728
Linsitinib + OSI-027; first compound 0.1 µM
  relative viability: 0.619
Linsitinib + OSI-027; first compound 0.3162 µM
  relative viability: 0.481
Linsitinib + OSI-027; first compound 1 µM
  relative viability: 0.292

## NCI-H1651
Ispinesib + Foretinib; first compound 0.001 µM
  relative viability: 0.973
Ispinesib + Foretinib; first compound 0.003162 µM
  relative viability: 0.768
Ispinesib + Foretinib; first compound 0.01 µM
  relative viability: 1.01
Ispinesib + Foretinib; first compound 0.03162 µM
  relative viability: 0.561
Ispinesib + Foretinib; first compound 0.1 µM
  relative viability: 0.147
Ispinesib + Olaparib; first compound 0.001 µM
  relative viability: 0.183
Ispinesib + Olaparib; first compound 0.003162 µM
  relative viability: 0.217
Ispinesib + Olaparib; first compound 0.01 µM
  relative viability: 0.179
Ispinesib + Olaparib; first compound 0.03162 µM
  relative viability: 0.169
Ispinesib + Olaparib; first compound 0.1 µM
  relative viability: 0.19
Linsitinib + Olaparib; first compound 0.01 µM
  relative viability: 0.18
Linsitinib + Olaparib; first compound 0.03162 µM
  relative viability: 0.169
Linsitinib + Olaparib; first compound 0.1 µM
  relative viability: 0.191
Linsitinib + Olaparib; first compound 0.3162 µM
  relative viability: 0.171
Linsitinib + Olaparib; first compound 1 µM
  relative viability: 0.178
Linsitinib + OSI-027; first compound 0.01 µM
  relative viability: 0.646
Linsitinib + OSI-027; first compound 0.03162 µM
  relative viability: 0.654
Linsitinib + OSI-027; first compound 0.1 µM
  relative viability: 0.646
Linsitinib + OSI-027; first compound 0.3162 µM
  relative viability: 0.581
Linsitinib + OSI-027; first compound 1 µM
  relative viability: 0.543

## A549
Ispinesib + Foretinib; first compound 0.001 µM
  relative viability: 1.13
Ispinesib + Foretinib; first compound 0.003162 µM
  relative viability: 1.19
Ispinesib + Foretinib; first compound 0.01 µM
  relative viability: 1.2
Ispinesib + Foretinib; first compound 0.03162 µM
  relative viability: 0.757
Ispinesib + Foretinib; first compound 0.1 µM
  relative viability: 0.0545
Ispinesib + Olaparib; first compound 0.001 µM
  relative viability: 0.417
Ispinesib + Olaparib; first compound 0.003162 µM
  relative viability: 0.276
Ispinesib + Olaparib; first compound 0.01 µM
  relative viability: 0.37
Ispinesib + Olaparib; first compound 0.03162 µM
  relative viability: 0.194
Ispinesib + Olaparib; first compound 0.1 µM
  relative viability: 0.0705
Linsitinib + Olaparib; first compound 0.01 µM
  relative viability: 0.344
Linsitinib + Olaparib; first compound 0.03162 µM
  relative viability: 0.376
Linsitinib + Olaparib; first compound 0.1 µM
  relative viability: 0.384
Linsitinib + Olaparib; first compound 0.3162 µM
  relative viability: 0.244
Linsitinib + Olaparib; first compound 1 µM
  relative viability: 0.195

## HCC-366
Ispinesib + Foretinib; first compound 0.001 µM
  relative viability: 0.895
Ispinesib + Foretinib; first compound 0.003162 µM
  relative viability: 0.959
Ispinesib + Foretinib; first compound 0.01 µM
  relative viability: 0.994
Ispinesib + Foretinib; first compound 0.03162 µM
  relative viability: 0.913
Ispinesib + Foretinib; first compound 0.1 µM
  relative viability: 0.0534
Ispinesib + Olaparib; first compound 0.001 µM
  relative viability: 0.355
Ispinesib + Olaparib; first compound 0.003162 µM
  relative viability: 0.434
Ispinesib + Olaparib; first compound 0.01 µM
  relative viability: 0.372
Ispinesib + Olaparib; first compound 0.03162 µM
  relative viability: 0.476
Ispinesib + Olaparib; first compound 0.1 µM
  relative viability: 0.0931
Linsitinib + Olaparib; first compound 0.01 µM
  relative viability: 0.354
Linsitinib + Olaparib; first compound 0.03162 µM
  relative viability: 0.219
Linsitinib + Olaparib; first compound 0.1 µM
  relative viability: 0.481
Linsitinib + Olaparib; first compound 0.3162 µM
  relative viability: 0.332
Linsitinib + Olaparib; first compound 1 µM
  relative viability: 0.265
Linsitinib + OSI-027; first compound 0.01 µM
  relative viability: 1.03
Linsitinib + OSI-027; first compound 0.03162 µM
  relative viability: 0.999
Linsitinib + OSI-027; first compound 0.1 µM
  relative viability: 0.888
Linsitinib + OSI-027; first compound 0.3162 µM
  relative viability: 0.821
Linsitinib + OSI-027; first compound 1 µM
  relative viability: 0.235

## EKVX
Ispinesib + Foretinib; first compound 0.001 µM
  relative viability: 0.897
Ispinesib + Foretinib; first compound 0.003162 µM
  relative viability: 0.85
Ispinesib + Foretinib; first compound 0.01 µM
  relative viability: 1.05
Ispinesib + Foretinib; first compound 0.03162 µM
  relative viability: 0.604
Ispinesib + Foretinib; first compound 0.1 µM
  relative viability: 0.275
Ispinesib + Olaparib; first compound 0.001 µM
  relative viability: 0.83
Ispinesib + Olaparib; first compound 0.01 µM
  relative viability: 1.05
Ispinesib + Olaparib; first compound 0.03162 µM
  relative viability: 0.831
Ispinesib + Olaparib; first compound 0.1 µM
  relative viability: 0.317
Linsitinib + Olaparib; first compound 0.03162 µM
  relative viability: 0.861
Linsitinib + Olaparib; first compound 0.1 µM
  relative viability: 0.951
Linsitinib + Olaparib; first compound 0.3162 µM
  relative viability: 0.489
Linsitinib + Olaparib; first compound 1 µM
  relative viability: 0.648
Linsitinib + OSI-027; first compound 0.01 µM
  relative viability: 0.706
Linsitinib + OSI-027; first compound 0.03162 µM
  relative viability: 0.723
Linsitinib + OSI-027; first compound 0.1 µM
  relative viability: 0.687
Linsitinib + OSI-027; first compound 0.3162 µM
  relative viability: 0.467
Linsitinib + OSI-027; first compound 1 µM
  relative viability: 0.607

## NCI-H1993
Ispinesib + Foretinib; first compound 0.001 µM
  relative viability: 0.694
Ispinesib + Foretinib; first compound 0.003162 µM
  relative viability: 0.786
Ispinesib + Foretinib; first compound 0.01 µM
  relative viability: 0.802
Ispinesib + Foretinib; first compound 0.03162 µM
  relative viability: 0.756
Ispinesib + Foretinib; first compound 0.1 µM
  relative viability: 0.633
Ispinesib + Olaparib; first compound 0.001 µM
  relative viability: 1.08
Ispinesib + Olaparib; first compound 0.003162 µM
  relative viability: 1.07
Ispinesib + Olaparib; first compound 0.01 µM
  relative viability: 1.11
Ispinesib + Olaparib; first compound 0.03162 µM
  relative viability: 1.23
Ispinesib + Olaparib; first compound 0.1 µM
  relative viability: 0.822
Linsitinib + Olaparib; first compound 0.01 µM
  relative viability: 1.09
Linsitinib + Olaparib; first compound 0.03162 µM
  relative viability: 0.692
Linsitinib + Olaparib; first compound 0.1 µM
  relative viability: 0.879
Linsitinib + Olaparib; first compound 0.3162 µM
  relative viability: 0.698
Linsitinib + Olaparib; first compound 1 µM
  relative viability: 0.982
Linsitinib + OSI-027; first compound 0.01 µM
  relative viability: 0.502
Linsitinib + OSI-027; first compound 0.03162 µM
  relative viability: 0.534
Linsitinib + OSI-027; first compound 0.1 µM
  relative viability: 0.525
Linsitinib + OSI-027; first compound 0.3162 µM
  relative viability: 0.407
Linsitinib + OSI-027; first compound 1 µM
  relative viability: 0.679

## NCI-H2342
Ispinesib + Foretinib; first compound 0.001 µM
  relative viability: 1.16
Ispinesib + Foretinib; first compound 0.003162 µM
  relative viability: 1
Ispinesib + Foretinib; first compound 0.01 µM
  relative viability: 1
Ispinesib + Foretinib; first compound 0.03162 µM
  relative viability: 1.09
Ispinesib + Foretinib; first compound 0.1 µM
  relative viability: 0.793
Ispinesib + Olaparib; first compound 0.001 µM
  relative viability: 0.413
Ispinesib + Olaparib; first compound 0.003162 µM
  relative viability: 0.423
Ispinesib + Olaparib; first compound 0.01 µM
  relative viability: 0.423
Ispinesib + Olaparib; first compound 0.03162 µM
  relative viability: 0.453
Ispinesib + Olaparib; first compound 0.1 µM
  relative viability: 0.328
Linsitinib + Olaparib; first compound 0.01 µM
  relative viability: 0.532
Linsitinib + Olaparib; first compound 0.03162 µM
  relative viability: 0.565
Linsitinib + Olaparib; first compound 0.1 µM
  relative viability: 0.481
Linsitinib + Olaparib; first compound 0.3162 µM
  relative viability: 0.438
Linsitinib + Olaparib; first compound 1 µM
  relative viability: 0.407
Linsitinib + OSI-027; first compound 0.01 µM
  relative viability: 0.521
Linsitinib + OSI-027; first compound 0.03162 µM
  relative viability: 0.608
Linsitinib + OSI-027; first compound 0.1 µM
  relative viability: 0.608
Linsitinib + OSI-027; first compound 0.3162 µM
  relative viability: 0.53
Linsitinib + OSI-027; first compound 1 µM
  relative viability: 0.551

## NCI-H1703
Ispinesib + Foretinib; first compound 0.001 µM
  relative viability: 0.331
Ispinesib + Foretinib; first compound 0.003162 µM
  relative viability: 0.372
Ispinesib + Foretinib; first compound 0.01 µM
  relative viability: 0.346
Ispinesib + Foretinib; first compound 0.03162 µM
  relative viability: 0.16
Ispinesib + Foretinib; first compound 0.1 µM
  relative viability: 0.157
Ispinesib + Olaparib; first compound 0.001 µM
  relative viability: 0.601
Ispinesib + Olaparib; first compound 0.003162 µM
  relative viability: 0.312
Ispinesib + Olaparib; first compound 0.01 µM
  relative viability: 0.246
Ispinesib + Olaparib; first compound 0.03162 µM
  relative viability: 0.127
Ispinesib + Olaparib; first compound 0.1 µM
  relative viability: 0.105
Linsitinib + Olaparib; first compound 0.01 µM
  relative viability: 0.479
Linsitinib + Olaparib; first compound 0.1 µM
  relative viability: 0.448
Linsitinib + Olaparib; first compound 0.3162 µM
  relative viability: 0.755
Linsitinib + Olaparib; first compound 1 µM
  relative viability: 0.189

## NCI-H23
Ispinesib + Foretinib; first compound 0.001 µM
  relative viability: 1.05
Ispinesib + Foretinib; first compound 0.003162 µM
  relative viability: 1.03
Ispinesib + Foretinib; first compound 0.01 µM
  relative viability: 1.17
Ispinesib + Foretinib; first compound 0.03162 µM
  relative viability: 0.934
Ispinesib + Foretinib; first compound 0.1 µM
  relative viability: 0.299
Ispinesib + Olaparib; first compound 0.001 µM
  relative viability: 0.306
Ispinesib + Olaparib; first compound 0.003162 µM
  relative viability: 0.379
Ispinesib + Olaparib; first compound 0.01 µM
  relative viability: 0.336
Ispinesib + Olaparib; first compound 0.03162 µM
  relative viability: 0.384
Ispinesib + Olaparib; first compound 0.1 µM
  relative viability: 0.175
Linsitinib + Olaparib; first compound 0.01 µM
  relative viability: 0.33
Linsitinib + Olaparib; first compound 0.03162 µM
  relative viability: 0.317
Linsitinib + Olaparib; first compound 0.1 µM
  relative viability: 0.29
Linsitinib + Olaparib; first compound 0.3162 µM
  relative viability: 0.218
Linsitinib + Olaparib; first compound 1 µM
  relative viability: 0.182
Linsitinib + OSI-027; first compound 0.01 µM
  relative viability: 0.722
Linsitinib + OSI-027; first compound 0.03162 µM
  relative viability: 0.64
Linsitinib + OSI-027; first compound 0.1 µM
  relative viability: 0.606
Linsitinib + OSI-027; first compound 0.3162 µM
  relative viability: 0.206
Linsitinib + OSI-027; first compound 1 µM
  relative viability: 0.251

— the supplement of paper PMC10307832
